Measurements: ChEMBL document CHEMBL1201862, “PubChem BioAssay data set” (2004)
Structures can show the parent of a compound that is named as a salt. The source made the active and inactive calls.

Key:
[1] = target: T1, Hexokinase HKDC1 (Homo sapiens, UniProt Q2TB90); experiment: HKDC1 hexokinase activators, dose response, biochemical, W721R variant (AID 504730); type: functional
T1 sequence (Q2TB90 whole entry): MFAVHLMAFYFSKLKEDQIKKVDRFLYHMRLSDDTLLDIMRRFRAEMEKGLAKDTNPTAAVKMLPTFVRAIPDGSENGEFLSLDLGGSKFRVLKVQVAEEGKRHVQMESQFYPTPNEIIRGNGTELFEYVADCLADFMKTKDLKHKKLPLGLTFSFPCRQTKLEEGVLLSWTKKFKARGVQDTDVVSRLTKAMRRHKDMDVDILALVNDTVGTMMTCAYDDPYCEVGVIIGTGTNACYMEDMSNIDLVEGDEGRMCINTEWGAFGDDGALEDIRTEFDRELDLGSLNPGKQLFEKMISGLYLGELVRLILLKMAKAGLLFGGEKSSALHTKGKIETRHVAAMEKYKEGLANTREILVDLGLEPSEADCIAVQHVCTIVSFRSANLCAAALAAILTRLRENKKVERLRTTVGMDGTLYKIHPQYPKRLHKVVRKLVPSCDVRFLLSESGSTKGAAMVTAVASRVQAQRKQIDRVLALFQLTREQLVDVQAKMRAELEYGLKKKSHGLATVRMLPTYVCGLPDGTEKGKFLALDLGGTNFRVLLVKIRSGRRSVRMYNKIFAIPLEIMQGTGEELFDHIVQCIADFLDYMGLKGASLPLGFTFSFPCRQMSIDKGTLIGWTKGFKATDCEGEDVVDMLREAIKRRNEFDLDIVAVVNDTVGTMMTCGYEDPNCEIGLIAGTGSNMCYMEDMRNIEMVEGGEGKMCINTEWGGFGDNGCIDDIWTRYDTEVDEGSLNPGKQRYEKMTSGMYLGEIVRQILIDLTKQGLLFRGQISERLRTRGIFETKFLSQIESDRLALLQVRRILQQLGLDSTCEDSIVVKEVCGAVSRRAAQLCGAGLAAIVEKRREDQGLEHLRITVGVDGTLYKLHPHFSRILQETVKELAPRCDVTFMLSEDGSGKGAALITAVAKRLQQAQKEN

[2] = target: T2, Hexokinase-1 (Homo sapiens, UniProt P19367); experiment: hexokinase 1 activators, dose response, selectivity assay for HKDC1 activator project, biochemical (AID 504762); type: functional
T2 sequence (P19367 whole entry): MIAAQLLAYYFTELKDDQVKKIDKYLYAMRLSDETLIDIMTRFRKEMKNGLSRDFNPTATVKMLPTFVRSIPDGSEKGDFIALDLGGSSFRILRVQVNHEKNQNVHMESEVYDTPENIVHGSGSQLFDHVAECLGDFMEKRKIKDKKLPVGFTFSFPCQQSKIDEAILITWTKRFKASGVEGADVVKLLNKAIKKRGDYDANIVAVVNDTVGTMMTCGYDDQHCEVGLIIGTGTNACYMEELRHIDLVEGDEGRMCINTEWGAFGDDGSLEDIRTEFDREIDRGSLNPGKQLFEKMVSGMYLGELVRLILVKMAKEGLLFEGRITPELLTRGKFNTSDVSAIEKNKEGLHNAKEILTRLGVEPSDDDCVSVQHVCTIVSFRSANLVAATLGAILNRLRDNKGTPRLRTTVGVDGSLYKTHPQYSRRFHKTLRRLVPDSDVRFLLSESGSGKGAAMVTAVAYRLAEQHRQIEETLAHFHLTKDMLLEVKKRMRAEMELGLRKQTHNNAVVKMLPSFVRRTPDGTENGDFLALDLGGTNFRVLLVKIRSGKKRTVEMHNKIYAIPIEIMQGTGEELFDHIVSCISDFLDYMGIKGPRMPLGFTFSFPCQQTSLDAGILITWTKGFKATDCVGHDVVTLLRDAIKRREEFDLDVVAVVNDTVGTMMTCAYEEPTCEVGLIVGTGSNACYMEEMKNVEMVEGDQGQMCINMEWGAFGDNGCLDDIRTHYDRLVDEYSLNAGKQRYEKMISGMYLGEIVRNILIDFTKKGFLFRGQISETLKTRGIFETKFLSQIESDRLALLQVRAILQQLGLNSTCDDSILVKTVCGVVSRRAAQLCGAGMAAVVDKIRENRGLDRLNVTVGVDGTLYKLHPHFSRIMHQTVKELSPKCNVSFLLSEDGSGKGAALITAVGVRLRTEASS

[3] = target: T3, Mucolipin-3 (Homo sapiens, UniProt Q8TDD5); experiment: Fluorescence counterscreen assay for […] agonists: dose response cell-based high-throughput screening assay to identify agonists of the transient receptor potential channel ML3 (TRPML3). [Related pubchem assays: 1424, 1448 ]; type: functional
T3 sequence (Q8TDD5 whole entry): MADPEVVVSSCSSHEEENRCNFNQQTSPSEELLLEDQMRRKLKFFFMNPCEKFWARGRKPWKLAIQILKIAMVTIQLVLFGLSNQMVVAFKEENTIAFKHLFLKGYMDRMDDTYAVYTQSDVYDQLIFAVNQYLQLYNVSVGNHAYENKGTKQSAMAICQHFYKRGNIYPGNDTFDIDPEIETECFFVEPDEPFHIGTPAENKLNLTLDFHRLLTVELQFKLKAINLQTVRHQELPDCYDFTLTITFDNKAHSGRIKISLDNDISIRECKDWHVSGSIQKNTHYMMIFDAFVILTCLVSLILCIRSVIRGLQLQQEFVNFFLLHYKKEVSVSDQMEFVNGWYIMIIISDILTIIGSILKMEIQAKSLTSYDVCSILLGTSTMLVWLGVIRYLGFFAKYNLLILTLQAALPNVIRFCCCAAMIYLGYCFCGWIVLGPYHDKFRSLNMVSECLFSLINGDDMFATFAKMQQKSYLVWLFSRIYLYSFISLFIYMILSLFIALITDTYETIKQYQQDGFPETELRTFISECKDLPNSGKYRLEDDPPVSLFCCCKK

[4] = target: Melanin-concentrating hormone receptor 1 (Homo sapiens, UniProt Q99705); experiment: Fluorescence-based counterscreen for antagonists of the G-protein coupled receptor 7 (GPR7): cell-based high throughput dose response assay to identify antagonists of the melanin-concentrating hormone receptor 1 (MCHR1).; type: functional
[5] = target: T4, Neuropeptides B/W receptor type 1 (Homo sapiens, UniProt P48145); experiment: Fluorescence-based dose response cell-based high throughput screening assay to identify antagonists of the G-protein coupled receptor 7 (GPR7). [Related pubchem assays: 1952 (Screening assay (GPR7 antagonists).), 1880 (Summary AID.)]; type: functional
T4 sequence (P48145 whole entry): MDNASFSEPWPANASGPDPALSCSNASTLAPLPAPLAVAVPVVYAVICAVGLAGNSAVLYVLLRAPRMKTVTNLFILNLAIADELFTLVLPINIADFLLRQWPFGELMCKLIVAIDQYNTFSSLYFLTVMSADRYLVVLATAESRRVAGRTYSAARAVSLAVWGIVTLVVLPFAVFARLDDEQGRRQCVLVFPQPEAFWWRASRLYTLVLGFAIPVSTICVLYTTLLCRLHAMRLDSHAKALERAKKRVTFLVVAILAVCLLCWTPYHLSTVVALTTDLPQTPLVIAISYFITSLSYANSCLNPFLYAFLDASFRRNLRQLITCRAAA

[6] = target: Ion channel NompC (Danio rerio, UniProt Q7T1G6); experiment: Dose response cell-based high-throughput screening assay for agonists of the transient receptor potential channel N1 (TRPN1). [Related pubchem assays (depositor defined):AID1424, AID1448]; type: functional
[7] = target: Glucose-6-phosphate 1-dehydrogenase (Homo sapiens, UniProt P11413); experiment: human G6PD enzyme inhibitors, dose response, selectivity assay for P. falciparum G6PD inhibitor project, biochemical, fluorescence (AID 504792); type: functional
[8] = target: T5, Mannose-6-phosphate isomerase (Homo sapiens, UniProt P34949); experiment: human PMI inhibitors, high substrate, primary screen, biochemical, fluorescence intensity, high mannose 6-phosphate (AID 1220)
T5 sequence (P34949 whole entry): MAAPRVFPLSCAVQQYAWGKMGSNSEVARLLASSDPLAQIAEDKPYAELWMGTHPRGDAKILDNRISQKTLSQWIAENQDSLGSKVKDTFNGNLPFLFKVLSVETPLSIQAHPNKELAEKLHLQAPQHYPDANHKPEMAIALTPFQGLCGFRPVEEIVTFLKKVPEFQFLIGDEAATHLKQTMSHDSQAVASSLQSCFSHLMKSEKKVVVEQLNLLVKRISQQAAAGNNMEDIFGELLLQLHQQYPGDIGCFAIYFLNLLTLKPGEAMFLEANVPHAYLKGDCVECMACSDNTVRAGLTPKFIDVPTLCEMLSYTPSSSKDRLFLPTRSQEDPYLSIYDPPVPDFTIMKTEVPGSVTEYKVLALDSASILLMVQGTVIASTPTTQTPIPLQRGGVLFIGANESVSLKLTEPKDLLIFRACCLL

[9] = target: Coagulation factor XII (Homo sapiens, UniProt P00748); type: functional;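 further: activated factor XIIa alpha cleaving a fluorogenic AMC peptide substrate; inhibitor potency from loss of enzyme activity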
[10] = target: T6, G-protein coupled receptor 35 (Homo sapiens, UniProt Q9HC97); experiment: SAR analysis of Antagonists of the GPR35 Receptor using an Image-Based Assay - Set 6. [Related pubchem assays (depositor defined):AID2013, AID2026]; type: functional
[11] = target: T6, G-protein coupled receptor 35; experiment: SAR analysis of Agonists of the GPR35 Receptor using an Image-Based Assay - Set 4. [Related pubchem assays (depositor defined):AID2013, AID2026]; type: functional
[12] = target: T7, Cannabinoid receptor 1 (Homo sapiens, UniProt P21554); experiment: SAR analysis of agonists of the Cannabinoid Receptor 1 using an Image-Based Assay - Set 4. [Related pubchem assays (depositor defined):AID2013, AID2026]; type: functional
[13] = target: T8, Cannabinoid receptor 2 (Homo sapiens, UniProt P34972); experiment: SAR analysis of agonists of the Cannabinoid Receptor 2 using an Image-Based Assay - Set 3. [Related pubchem assays (depositor defined):AID2013, AID2026]; type: functional
[14] = target: T8, Cannabinoid receptor 2; experiment: SAR analysis of antagonists of the Cannabinoid Receptor 2 using an Image-Based Assay - Set 3. [Related pubchem assays (depositor defined):AID2013, AID2026]; type: functional
[15] = target: G-protein coupled receptor 55 (Homo sapiens, UniProt Q9Y2T6); experiment: SAR Analysis of Selective Antagonists of GPR55 using an Image-Based Assay - Set 4. [Related pubchem assays (depositor defined):AID2013, AID2026]; type: functional;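 further: antagonism of response to 5 µM lysophosphatidylinositol agonist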
[16] = target: T7, Cannabinoid receptor 1; experiment: SAR analysis of antagonists of the Cannabinoid Receptor 1 using an Image-Based Assay - Set 4. [Related pubchem assays (depositor defined):AID2013, AID2026]; type: functional
[17] = target: T9, Rac GTPase-activating protein 1 (Homo sapiens, UniProt Q9H0H5); experiment: MgcRacGAP GTPase-activating activity inhibitors, confirmation, biochemical, ADP Hunter fluorescence, primary and confirmatory (AID 624330); type: functional
T9 sequence (Q9H0H5 whole entry): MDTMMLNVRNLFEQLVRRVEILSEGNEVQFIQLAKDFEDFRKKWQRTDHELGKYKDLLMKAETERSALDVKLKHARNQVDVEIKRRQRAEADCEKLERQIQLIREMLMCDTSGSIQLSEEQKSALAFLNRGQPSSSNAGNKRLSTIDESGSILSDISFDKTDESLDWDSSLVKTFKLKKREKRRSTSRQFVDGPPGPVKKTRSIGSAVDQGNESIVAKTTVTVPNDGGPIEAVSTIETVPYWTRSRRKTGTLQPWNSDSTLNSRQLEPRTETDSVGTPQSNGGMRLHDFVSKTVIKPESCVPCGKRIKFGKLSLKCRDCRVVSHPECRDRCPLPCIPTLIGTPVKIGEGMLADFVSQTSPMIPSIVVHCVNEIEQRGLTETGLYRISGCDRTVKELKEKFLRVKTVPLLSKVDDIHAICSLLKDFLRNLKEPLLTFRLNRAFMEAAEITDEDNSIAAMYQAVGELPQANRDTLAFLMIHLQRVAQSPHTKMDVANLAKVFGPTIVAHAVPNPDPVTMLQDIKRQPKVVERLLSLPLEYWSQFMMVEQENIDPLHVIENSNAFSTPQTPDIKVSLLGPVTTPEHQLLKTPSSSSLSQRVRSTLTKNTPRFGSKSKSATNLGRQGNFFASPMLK

[18] = target: Induced myeloid leukemia cell differentiation protein Mcl-1 (Homo sapiens, UniProt Q07820); type: functional
[19] = test system: BJ; experiment: cytotoxicity toward Ras-transformed BJeLR fibroblasts, dose response, cell-based, alamar blue fluorescence, cherrypicked samples (AID 2631); type: functional; details: Homo sapiens;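 further: confirmatory dose-response assay in RAS-dependent BJ fibroblasts engineered with TERT, LT and ST, with cytotoxicity read by fluorescence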
[20] = cytotoxicity in HEK-293T NF-kB-Luc cells, dose response, cytotoxicity control for B/T-cell NF-kB inhibitor project, cell-based, uHTS hits (AID 489019); type: functional;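 further: IC50 reflects cytotoxicity as loss of cell viability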
[21] = microbe, parasite or virus in culture; type: functional; details: Mycobacterium tuberculosis

T8 sequence (P34972 whole entry): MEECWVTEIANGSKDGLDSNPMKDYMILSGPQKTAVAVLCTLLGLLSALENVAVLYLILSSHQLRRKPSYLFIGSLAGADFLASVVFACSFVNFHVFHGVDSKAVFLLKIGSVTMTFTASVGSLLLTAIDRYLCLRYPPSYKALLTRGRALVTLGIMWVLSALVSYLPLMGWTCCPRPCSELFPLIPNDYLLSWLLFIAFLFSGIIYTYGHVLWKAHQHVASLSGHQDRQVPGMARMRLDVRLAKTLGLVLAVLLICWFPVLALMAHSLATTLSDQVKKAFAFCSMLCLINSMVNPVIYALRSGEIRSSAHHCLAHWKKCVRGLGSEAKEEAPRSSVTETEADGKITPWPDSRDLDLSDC
T7 sequence (P21554 whole entry): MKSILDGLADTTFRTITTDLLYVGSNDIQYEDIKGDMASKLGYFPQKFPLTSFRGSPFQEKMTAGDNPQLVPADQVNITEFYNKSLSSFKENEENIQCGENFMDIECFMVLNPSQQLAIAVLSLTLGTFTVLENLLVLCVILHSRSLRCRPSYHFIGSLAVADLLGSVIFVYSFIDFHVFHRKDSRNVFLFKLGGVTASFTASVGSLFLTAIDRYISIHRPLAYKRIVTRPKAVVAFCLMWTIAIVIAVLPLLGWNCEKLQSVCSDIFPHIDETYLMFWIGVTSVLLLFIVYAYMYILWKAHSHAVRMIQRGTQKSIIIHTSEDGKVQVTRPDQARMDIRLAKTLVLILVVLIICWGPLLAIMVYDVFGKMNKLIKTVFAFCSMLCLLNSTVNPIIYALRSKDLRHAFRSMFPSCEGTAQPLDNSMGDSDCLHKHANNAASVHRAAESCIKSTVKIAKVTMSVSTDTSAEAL
T6 sequence (Q9HC97 whole entry): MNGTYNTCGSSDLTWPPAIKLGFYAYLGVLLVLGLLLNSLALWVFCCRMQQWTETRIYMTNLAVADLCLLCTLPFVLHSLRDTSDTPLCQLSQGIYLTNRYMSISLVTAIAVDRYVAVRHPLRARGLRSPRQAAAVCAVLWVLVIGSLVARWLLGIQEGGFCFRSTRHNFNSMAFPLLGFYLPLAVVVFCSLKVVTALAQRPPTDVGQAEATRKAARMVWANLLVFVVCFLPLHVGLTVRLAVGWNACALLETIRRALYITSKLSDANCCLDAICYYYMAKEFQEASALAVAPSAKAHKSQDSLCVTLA
G-protein coupled receptor 55, sequence (Q9Y2T6 whole entry): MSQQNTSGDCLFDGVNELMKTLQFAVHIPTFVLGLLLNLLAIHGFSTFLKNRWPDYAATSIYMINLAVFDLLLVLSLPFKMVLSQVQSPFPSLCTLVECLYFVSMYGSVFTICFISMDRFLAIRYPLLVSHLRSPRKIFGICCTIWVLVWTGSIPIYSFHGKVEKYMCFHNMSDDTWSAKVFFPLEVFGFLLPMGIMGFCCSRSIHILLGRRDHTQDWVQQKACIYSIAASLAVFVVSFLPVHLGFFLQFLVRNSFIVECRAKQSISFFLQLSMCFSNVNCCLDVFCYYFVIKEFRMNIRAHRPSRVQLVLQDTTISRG
Coagulation factor XII, sequence (P00748 20-372 limits assumed): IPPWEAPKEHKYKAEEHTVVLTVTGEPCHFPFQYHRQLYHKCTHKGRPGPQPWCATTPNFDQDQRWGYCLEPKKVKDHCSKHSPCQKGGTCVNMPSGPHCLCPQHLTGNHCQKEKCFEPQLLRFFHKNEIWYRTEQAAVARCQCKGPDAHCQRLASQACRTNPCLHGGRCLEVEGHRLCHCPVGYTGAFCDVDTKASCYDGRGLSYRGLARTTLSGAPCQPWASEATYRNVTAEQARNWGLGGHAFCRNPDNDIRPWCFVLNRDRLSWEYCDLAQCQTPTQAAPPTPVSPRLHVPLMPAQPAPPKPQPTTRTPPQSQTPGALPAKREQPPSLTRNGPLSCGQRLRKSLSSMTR
Coagulation factor XII, sequence (P00748 373-615 limits assumed): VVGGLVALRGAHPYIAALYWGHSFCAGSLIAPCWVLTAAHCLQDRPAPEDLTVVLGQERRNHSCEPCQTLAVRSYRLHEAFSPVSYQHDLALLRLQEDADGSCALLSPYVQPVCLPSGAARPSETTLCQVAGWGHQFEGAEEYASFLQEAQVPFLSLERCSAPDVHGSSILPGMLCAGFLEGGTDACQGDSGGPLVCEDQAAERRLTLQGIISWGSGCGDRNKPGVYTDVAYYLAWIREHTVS
Ion channel NompC, sequence (Q7T1G6 whole entry): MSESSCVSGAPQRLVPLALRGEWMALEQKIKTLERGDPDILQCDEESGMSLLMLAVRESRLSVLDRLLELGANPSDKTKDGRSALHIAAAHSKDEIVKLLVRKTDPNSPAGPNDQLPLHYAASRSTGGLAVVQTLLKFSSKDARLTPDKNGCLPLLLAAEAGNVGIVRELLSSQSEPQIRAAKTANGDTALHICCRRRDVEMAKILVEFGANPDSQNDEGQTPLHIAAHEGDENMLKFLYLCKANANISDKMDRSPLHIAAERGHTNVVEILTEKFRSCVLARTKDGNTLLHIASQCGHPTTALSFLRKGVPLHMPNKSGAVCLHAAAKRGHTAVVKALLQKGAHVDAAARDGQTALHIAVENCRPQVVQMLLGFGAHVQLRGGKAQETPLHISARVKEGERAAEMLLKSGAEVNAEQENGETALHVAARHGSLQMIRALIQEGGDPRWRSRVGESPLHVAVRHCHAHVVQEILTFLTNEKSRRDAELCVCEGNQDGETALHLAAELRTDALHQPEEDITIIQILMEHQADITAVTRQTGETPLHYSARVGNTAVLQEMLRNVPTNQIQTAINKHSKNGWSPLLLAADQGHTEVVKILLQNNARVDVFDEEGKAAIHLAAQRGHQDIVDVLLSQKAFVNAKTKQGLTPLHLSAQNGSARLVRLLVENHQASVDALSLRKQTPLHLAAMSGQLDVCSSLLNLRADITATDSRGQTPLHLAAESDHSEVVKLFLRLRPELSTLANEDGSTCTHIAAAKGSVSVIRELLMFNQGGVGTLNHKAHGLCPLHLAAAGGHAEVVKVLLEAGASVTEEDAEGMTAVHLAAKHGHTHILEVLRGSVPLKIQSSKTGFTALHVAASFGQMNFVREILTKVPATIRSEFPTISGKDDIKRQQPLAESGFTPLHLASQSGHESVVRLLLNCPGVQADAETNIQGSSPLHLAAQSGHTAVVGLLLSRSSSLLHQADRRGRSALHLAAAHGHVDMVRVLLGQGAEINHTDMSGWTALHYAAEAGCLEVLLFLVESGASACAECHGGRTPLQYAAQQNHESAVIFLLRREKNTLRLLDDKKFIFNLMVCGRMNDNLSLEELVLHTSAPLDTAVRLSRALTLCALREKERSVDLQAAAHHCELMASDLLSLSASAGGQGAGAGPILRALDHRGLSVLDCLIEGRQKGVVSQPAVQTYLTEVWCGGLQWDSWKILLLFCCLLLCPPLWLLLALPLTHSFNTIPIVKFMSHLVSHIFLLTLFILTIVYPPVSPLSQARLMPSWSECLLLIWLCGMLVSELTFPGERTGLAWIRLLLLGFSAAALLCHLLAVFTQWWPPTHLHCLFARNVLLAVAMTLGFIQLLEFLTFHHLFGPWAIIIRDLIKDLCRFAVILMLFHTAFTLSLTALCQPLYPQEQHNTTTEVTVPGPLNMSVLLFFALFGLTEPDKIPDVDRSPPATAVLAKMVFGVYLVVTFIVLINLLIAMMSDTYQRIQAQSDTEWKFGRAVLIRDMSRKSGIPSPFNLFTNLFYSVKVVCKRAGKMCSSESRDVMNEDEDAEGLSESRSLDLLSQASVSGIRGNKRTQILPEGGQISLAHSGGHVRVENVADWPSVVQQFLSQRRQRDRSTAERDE
Melanin-concentrating hormone receptor 1, sequence (Q99705 whole entry): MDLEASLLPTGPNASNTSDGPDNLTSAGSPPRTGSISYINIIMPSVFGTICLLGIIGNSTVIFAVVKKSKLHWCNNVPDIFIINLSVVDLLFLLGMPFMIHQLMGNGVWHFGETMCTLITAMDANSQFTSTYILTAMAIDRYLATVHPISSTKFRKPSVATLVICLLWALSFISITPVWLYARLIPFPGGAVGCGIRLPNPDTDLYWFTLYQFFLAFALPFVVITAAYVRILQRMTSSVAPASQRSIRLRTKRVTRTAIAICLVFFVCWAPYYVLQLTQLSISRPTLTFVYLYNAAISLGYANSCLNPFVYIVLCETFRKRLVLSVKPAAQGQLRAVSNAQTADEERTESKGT
Glucose-6-phosphate 1-dehydrogenase, sequence (P11413 whole entry): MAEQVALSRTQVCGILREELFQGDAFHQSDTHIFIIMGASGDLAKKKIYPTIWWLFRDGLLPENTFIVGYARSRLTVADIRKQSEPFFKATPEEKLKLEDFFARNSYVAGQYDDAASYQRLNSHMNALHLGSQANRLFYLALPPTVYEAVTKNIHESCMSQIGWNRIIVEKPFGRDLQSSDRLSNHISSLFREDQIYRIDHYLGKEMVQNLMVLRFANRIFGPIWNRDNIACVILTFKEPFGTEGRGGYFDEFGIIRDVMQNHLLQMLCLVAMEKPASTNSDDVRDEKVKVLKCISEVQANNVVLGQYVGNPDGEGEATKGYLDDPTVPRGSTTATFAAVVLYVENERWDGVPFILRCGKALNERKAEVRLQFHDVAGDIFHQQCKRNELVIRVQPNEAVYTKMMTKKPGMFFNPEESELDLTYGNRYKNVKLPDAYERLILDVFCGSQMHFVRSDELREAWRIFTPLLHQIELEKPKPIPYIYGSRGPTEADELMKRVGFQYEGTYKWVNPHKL
Induced myeloid leukemia cell differentiation protein Mcl-1, sequence (Q07820 whole entry): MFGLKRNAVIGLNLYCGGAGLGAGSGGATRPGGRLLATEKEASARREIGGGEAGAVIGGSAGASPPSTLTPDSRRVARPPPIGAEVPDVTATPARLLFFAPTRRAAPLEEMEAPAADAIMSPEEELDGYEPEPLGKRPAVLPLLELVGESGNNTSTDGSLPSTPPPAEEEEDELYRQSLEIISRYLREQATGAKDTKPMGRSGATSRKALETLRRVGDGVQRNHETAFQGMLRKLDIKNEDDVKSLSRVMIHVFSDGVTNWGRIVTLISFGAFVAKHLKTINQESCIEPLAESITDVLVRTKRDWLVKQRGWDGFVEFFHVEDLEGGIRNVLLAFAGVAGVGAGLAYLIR

COc1ccc(NC2=NN=C(c3ccc4c(c3)OCCO4)CS2)cc1
EC50 [1]: 25 µM (inactive)
EC50 [2]: 23.9 µM (inactive)

O=C(CN1C(=O)C2C3CC(C(Br)C3Br)C2C1=O)N1CCN(Cc2ccccc2)CC1 (stereo not drawn)
EC50 [3]: > 29.9 µM (not active)
IC50 [4]: 20.7 µM (not active)
IC50 [5]: 4.18 µM (active)
EC50 [6]: 16.9 µM (inactive)

CCn1c2ccccc2c2nc3cc(S(=O)(=O)N4CCOCC4)ccc3nc21
EC50 [1]: > 80 µM (inactive)
EC50 [2]: > 80 µM (inactive)
IC50 [7]: > 80 µM (inactive)
IC50 [8]: 20 µM (active)

COc1ccccc1CN1CCNC(=O)C1CC(=O)N(C)Cc1cnccn1 (stereo not drawn)
IC50 [9]: > 50 µM (inactive)

COc1ccc(-n2cc3c(-c4ccc(-c5ccccc5)cc4)nnc(C)c3n2)cc1
IC50 [10]: 4.74 µM (active)
EC50 [11]: > 32 µM (inactive)
EC50 [12]: > 32 µM (inactive)
EC50 [13]: > 32 µM (inactive)
IC50 [14]: 2.09 µM (active)
IC50 [15]: > 32 µM (inactive)
IC50 [16]: 1.04 µM (active)

Cc1cccc(OCC(=O)N2CCN(c3nc(C)nc4sc5c(c34)CCCC5)CC2)c1
IC50 [10]: > 32 µM (inactive)
EC50 [11]: > 32 µM (inactive)
EC50 [12]: > 32 µM (inactive)
EC50 [13]: > 32 µM (inactive)
IC50 [14]: > 11 µM (inactive)
IC50 [15]: > 32 µM (inactive)
IC50 [16]: 1.66 µM (active)

CC(=O)c1sc(NC(=O)COc2ccc(Cl)cc2C)nc1C
IC50 [9]: > 50 µM (inactive)

O=C1/C(=C\c2ccc(O)cc2)SC(=S)N1/N=C/c1ccc(O)cc1
IC50 [17]: 105 µM (active)
EC50 [3]: > 29.9 µM (not active)
IC50 [18]: 2.48 µM (active)
EC50 [6]: 4.9 µM (active)

COc1cccc2c1C(=O)c1c(O)c3c(c(O)c1C2=O)C[C@@](O)(C(=O)CO)C[C@@H]3O[C@H]1C[C@H](N)[C@@H](O)[C@H](C)O1 [EPIRUBICIN HYDROCHLORIDE]
EC50 [19]: < 0.104 µM (active)
IC50 [20]: > 80 µM (inactive)
CC50 [21]: 18.7 µM (active)
